# Assay results as given in US5362634A, “Process for producing A83543 compounds” (DowElanco, priority 1991, dated 1994).
# Read-outs that look alike come from different tables or passages of the source.
# What was measured:
# [1] = system: neonate CBW (cotton bollworm) larvae; test: Percent control of neonate CBW larvae by A83543 components, topical pipet method; assay type: in vivo, Heliothis zea; details: for mortality at 0.5 ppm / mortality at 1 ppm / mortality at 5 ppm / mortality at 10 ppm: 24 h, read-out: Percent Control
# Method: Each test compound was formulated by dissolving the compound in an acetone/alcohol (1:1) mixture containing 23 g of "Toximul R" (sulfonate/nonionic emulsifier blend) and 13 g of "Toximul S" (sulfonate/nonionic emulsifier blend) per liter. These mixtures were then diluted with water to give the indicated concentrations.
# Additional insects were evaluated using similar formulations and evaluation procedures, with the exceptions noted.
# After standard exposure periods, percent mortality was evaluated. The following abbreviations are used:
# ^1 Treatments with the same letter in parentheses are similar at the
# ^2 Topical pipet method with 20 larve/replicate and 4 replicates; one
# day between treatment and observation.
# [2] = system: fourth instar yellow fever mosquito larvae; test: whole plant or invertebrate; parameters: species or system Aedes aegypti; details: 24 hr; for mortality at 0.312 ppm: Aedes aegypti, read-out: Percent Control
# Description: (§1) The A83543 components were active against yellow fever mosquito (Aedes aegypti) larvae in standard in vitro mosquito larvicide tests.
# ^a At 24 hr when treated at 0.312 ppm
# [3] = system: adult stable fly (ASF); test: In vitro efficacy, exposure of ASF to chemically added serum samples; details: Stomoxys calcitrans, read-out: Percent insect mortality
# Description: (§2) ^1 Percent insect mortality following 24 to 48 hrs. in vitro exposure
# (§3) to chemically added serum samples
# [4] = system: blow fly larvae (LBF); test: In vitro efficacy, exposure of LBF to chemically added serum samples
# Description: as §2, §3
# [5] = system: blow fly larvae (LBF); test: Guinea pig systemic test, blow fly larvae; assay type: in vivo
# Method: (§4) Adult guinea pigs are used in this test system. The compounds to be tested are dissolved in aqueous polyvinyl pyrrolidone or in polyethylene glycol 200, and an appropriate amount of the solution is administered either orally or by intraperitoneal injection.
# (§5) Blood is drawn from the guinea pigs at 30 minutes except as noted, and the samples of blood are centrifuged. Dental wicks are saturated with the blood serum, and then exposed in Petri dishes to adult stable flies; blow fly larvae are exposed in test tubes. After 24 and 48 hours, the insects are examined, and the number of dead are counted. The results of the tests are recorded as the percent of the insects which are killed.
# [6] = system: adult stable fly (ASF); test: Guinea pig systemic test, adult stable fly; assay type: in vivo, Stomoxys calcitrans
# Method: as §4, §5
# [7] = system: first instar yellow fever mosquito larvae; test: In vitro mosquito larvicide test, first instar; details: Aedes aegypti, 24 h, lowest concentration with 100% inhibition after 24 hr, microtiter plates; read-out: Minimal Inhibitory Concentration
# Description: as §1
# [8] = system: Spodoptera eridania; test: Outdoor pot tests against Southern armyworm; assay type: in vivo
# Description: Table XV compares the effectiveness and persistence of A83543A treatment with that of methomyl in outdoor pot tests against Southern armyworm.
# [9] = system: CRW (Southern corn rootworm); test: LC50 against CRW; assay type: in vivo, Diabrotica undecimpunctata howardi; details: rate in soil by wt.
# Description: (§6) ^a Corn rootworm rate in soil by wt.; all others as spray
# [10] = system: Grain Aphid; test: LC50 against Grain Aphid; assay type: in vivo; details: Sitobion avenae; spray concentration
# Description: as §6
# [11] = system: SM (twospotted spider mite); test: LC50 against SM; assay type: in vivo; details: Tetranychus urticae; spray concentration
# Description: as §6
# [12] = system: SAW (Southern armyworm); test: LC50 against SAW, foliar; assay type: in vivo; details: Spodoptera eridania, spray concentration
# Description: as §6
# [13] = system: CBW (cotton bollworm); test: LC50 against CBW, contact; assay type: in vivo, Heliothis zea; details: spray concentration
# Description: as §6
# [14] = 0.5 ppm, topical pipet, one day
smiles,measurement,setting,value
CC[C@H]1CCC[C@H](O[C@H]2CC[C@H](N(C)C)[C@@H](C)O2)[C@@H](C)C(=O)C2=C[C@@H]3[C@@H](C=C(C)[C@@H]4C[C@@H](O[C@@H]5O[C@@H](C)[C@H](OC)[C@@H](OC)[C@H]5OC)C[C@@H]34)[C@@H]2CC(=O)O1 [A83543D],mortality at 0.5 ppm,[1]; topical,58%
same,mortality at 1 ppm,[1]; topical,90%
same,mortality at 5 ppm,[1]; topical,100%
same,mortality at 10 ppm,[1]; topical,100%
same,mortality at 0.312 ppm,[2],30%
same,mortality at 0.312 ppm,[3]; 24 hr,0%
same,mortality at 0.312 ppm,[3]; 48 hr,0%
same,mortality at 0.625 ppm,[3]; 24 hr,0%
same,mortality at 0.625 ppm,[3]; 48 hr,60%
same,mortality at 1.25 ppm,[3]; 24 hr,10%
same,mortality at 1.25 ppm,[3]; 48 hr,90%
same,mortality at 2.5 ppm,[3]; 24 hr,20%
same,mortality at 2.5 ppm,[3]; 48 hr,100%
same,mortality at 5 ppm,[3]; 24 hr,20%
same,mortality at 5 ppm,[3]; 48 hr,90%
same,mortality at 10 ppm,[3]; 24 hr,50%
same,mortality at 10 ppm,[3]; 48 hr,100%
same,Percent insect mortality,"[4]; 0.312 ppm, 24 hr",25%
same,Percent insect mortality,"[4]; 0.312 ppm, 48 hr",25%
same,Percent insect mortality,"[4]; 0.625 ppm, 24 hr",50%
same,Percent insect mortality,"[4]; 0.625 ppm, 48 hr",75%
same,Percent insect mortality,"[4]; 1.25 ppm, 24 hr",80%
same,Percent insect mortality,"[4]; 1.25 ppm, 48 hr",90%
same,Percent insect mortality,"[4]; 2.5 ppm, 24 hr",90%
same,Percent insect mortality,"[4]; 2.5 ppm, 48 hr",100%
same,Percent insect mortality,"[4]; 5 ppm, 24 hr",90%
same,Percent insect mortality,"[4]; 5 ppm, 48 hr",100%
same,Percent insect mortality,"[4]; 10 ppm, 24 hr",100%
same,Percent insect mortality,"[4]; 10 ppm, 48 hr",100%
same,% Activity LBF,"[5]; 10 mg/kg IP, bled 30 min",0%
same,% Activity LBF,"[5]; 10 mg/kg IP, bled 5 hr",0%
same,% Activity LBF,"[5]; 10 mg/kg IP, bled 24 hr",0%
same,% Activity LBF,"[5]; 30 mg/kg IP, bled 30 min",0%
same,% Activity LBF,"[5]; 30 mg/kg IP, bled 5 hr",0%
same,% Activity LBF,"[5]; 30 mg/kg IP, bled 24 hr",0%
same,% Activity LBF,"[5]; 50 mg/kg IP, bled 30 min",75%
same,% Activity LBF,"[5]; 50 mg/kg IP, bled 5 hr",0%
same,% Activity LBF,"[5]; 50 mg/kg IP, bled 24 hr",25%
same,% Activity ASF,"[6]; 10 mg/kg IP, bled 30 min",0%
same,% Activity ASF,"[6]; 10 mg/kg IP, bled 5 hr",0%
same,% Activity ASF,"[6]; 10 mg/kg IP, bled 24 hr",10%
same,% Activity ASF,"[6]; 30 mg/kg IP, bled 30 min",0%
same,% Activity ASF,"[6]; 30 mg/kg IP, bled 5 hr",0%
same,% Activity ASF,"[6]; 30 mg/kg IP, bled 24 hr",0%
same,% Activity ASF,"[6]; 50 mg/kg IP, bled 30 min",0%
same,% Activity ASF,"[6]; 50 mg/kg IP, bled 5 hr",0%
same,% Activity ASF,"[6]; 50 mg/kg IP, bled 24 hr",0%
CC[C@H]1CCC[C@H](O[C@H]2CC[C@H](N)[C@@H](C)O2)[C@@H](C)C(=O)C2=C[C@@H]3[C@@H](C=C[C@@H]4C[C@@H](O[C@@H]5O[C@@H](C)[C@H](OC)[C@@H](OC)[C@H]5OC)C[C@@H]34)[C@@H]2CC(=O)O1 [A83543C],mortality at 0.5 ppm,[1]; [14],5%
same,mortality at 1 ppm,"[1]; 1 ppm, topical pipet, one day",85%
same,mortality at 5 ppm,"[1]; 5 ppm, topical pipet, one day",93%
same,mortality at 10 ppm,"[1]; 10 ppm, topical pipet, one day",100%
same,MIC,[7],0.031 µg/mL
same,mortality at 0.312 ppm,[2],60%
"CNC(=O)ON=C(C)SC [methomyl, reference compound]",mortality at 63 ppm,"[8]; 24 h, 1 day after treatment",100%
same,mortality at 125 ppm,"[8]; 24 h, 1 day after treatment",100%
same,mortality at 250 ppm,"[8]; 24 h, 1 day after treatment",100%
same,mortality at 500 ppm,"[8]; 24 h, 1 day after treatment",100%
same,mortality at 63 ppm,"[8]; 120 h, 5 days after treatment",20%
same,mortality at 125 ppm,"[8]; 120 h, 5 days after treatment",35%
same,mortality at 250 ppm,"[8]; 120 h, 5 days after treatment",85%
same,mortality at 500 ppm,"[8]; 120 h, 5 days after treatment",90%
same,mortality at 63 ppm,"[8]; 168 h, 7 days after treatment",15%
same,mortality at 125 ppm,"[8]; 168 h, 7 days after treatment",40%
same,mortality at 250 ppm,"[8]; 168 h, 7 days after treatment",45%
same,mortality at 500 ppm,"[8]; 168 h, 7 days after treatment",85%
same,mortality at 63 ppm,"[8]; 336 h, 14 days after treatment",0%
same,mortality at 125 ppm,"[8]; 336 h, 14 days after treatment",20%
same,mortality at 250 ppm,"[8]; 336 h, 14 days after treatment",40%
same,mortality at 500 ppm,"[8]; 336 h, 14 days after treatment",60%
same,LC50,[9],6 µg/mL
same,LC50,[10],5.4 µg/mL
same,LC50,[11],71.4 µg/mL
same,LC50,[12],11.4 µg/mL
same,LC50,[13],14.5 µg/mL
CO[C@@H]1[C@@H](OC)[C@H](C)O[C@@H](O[C@H]2C[C@H]3[C@@H]4C=C5C(=O)[C@H](C)[C@@H](O[C@H]6CC[C@H](N(C)C)[C@@H](C)O6)CCC[C@H](C)OC(=O)C[C@H]5[C@@H]4C=C[C@@H]3C2)[C@@H]1OC [A83543E],mortality at 0.5 ppm,[1]; topical,28%
same,mortality at 1 ppm,[1]; topical,58%
same,mortality at 5 ppm,[1]; topical,100%
same,mortality at 10 ppm,[1]; topical,100%
same,mortality at 0.312 ppm,[2],80%
CC[C@H]1CCC[C@H](O[C@H]2CC[C@H](N(C)C)[C@@H](C)O2)CC(=O)C2=C[C@@H]3[C@@H](C=C[C@@H]4C[C@@H](O[C@@H]5O[C@@H](C)[C@H](OC)[C@@H](OC)[C@H]5OC)C[C@@H]34)[C@@H]2CC(=O)O1 [A83543F],mortality at 0.5 ppm,[1]; [14],0%
same,mortality at 1 ppm,"[1]; 1 ppm, topical pipet, one day",0%
same,mortality at 5 ppm,"[1]; 5 ppm, topical pipet, one day",0%
same,mortality at 10 ppm,"[1]; 10 ppm, topical pipet, one day",95%
same,mortality at 0.312 ppm,[2],0%
CC[C@H]1CCC[C@H](O[C@H]2CC[C@@H](N(C)C)[C@@H](C)O2)[C@@H](C)C(=O)C2=C[C@@H]3[C@@H](C=C[C@@H]4C[C@@H](O[C@@H]5O[C@@H](C)[C@H](OC)[C@@H](OC)[C@H]5OC)C[C@@H]34)[C@@H]2CC(=O)O1 [A83543G],Percent Control,"[1]; 0.5 ppm, topical pipet, one day, 1440 min",0%
same,Percent Control,"[1]; 1 ppm, topical pipet, one day",0%
same,Percent Control,"[1]; 5 ppm, topical pipet, one day, 1440 min",20%
same,Percent Control,"[1]; 10 ppm, topical pipet, one day, 1440 min",80%
same,Percent Control,[2]; 0.312 ppm,0%
CC[C@H]1CCC[C@H](O[C@H]2CC[C@H](NC)[C@@H](C)O2)[C@@H](C)C(=O)C2=C[C@@H]3[C@@H](C=C[C@@H]4C[C@@H](O[C@@H]5O[C@@H](C)[C@H](OC)[C@@H](OC)[C@H]5OC)C[C@@H]34)[C@@H]2CC(=O)O1 [A83543B],mortality at 0.5 ppm,[1]; [14],35%
same,mortality at 1 ppm,"[1]; 1 ppm, topical pipet, one day",80%
same,mortality at 5 ppm,"[1]; 5 ppm, topical pipet, one day",100%
same,mortality at 10 ppm,"[1]; 10 ppm, topical pipet, one day",100%
same,MIC,[7],0.016 µg/mL
same,mortality at 0.312 ppm,[2],60%
